Test results reported in US20260132140A1, “IMIDAZOLYL-AMINO-PYRAZINE-CARBONITRILS AS CHK-1 INHIBITORS” (BenevolentAI Bio Limited, priority 2022, published 2026).

How the values were obtained:
[1] = system: GBM LN18 cells; test: In vitro cell viability assay (Cell Titre Glo, 72 hours); assay type: cell-based; settings: Homo sapiens, LN-18, read-out: LN18 pIC50 (converted)
Experimental: GBM LN18 cells were incubated with increasing concentrations of selected compounds of the invention for 72 hours prior to the measurement of ATP in metabolically viable cells with the Cell Titre® Glo Luminescent reagent. A 10-point concentration response curve up to a maximum concentration of 10 μM was tested.
The percent (%) effect i.e., inhibition at each concentration of compound was calculated based on, and relative to the amount of inhibition produced in the vehicle control and inhibited control wells contained within each plate.

[2] = target: T1, human Chk1 kinase (Homo sapiens, UniProt O14757); test: biochemical
T1 sequence (O14757 1-476): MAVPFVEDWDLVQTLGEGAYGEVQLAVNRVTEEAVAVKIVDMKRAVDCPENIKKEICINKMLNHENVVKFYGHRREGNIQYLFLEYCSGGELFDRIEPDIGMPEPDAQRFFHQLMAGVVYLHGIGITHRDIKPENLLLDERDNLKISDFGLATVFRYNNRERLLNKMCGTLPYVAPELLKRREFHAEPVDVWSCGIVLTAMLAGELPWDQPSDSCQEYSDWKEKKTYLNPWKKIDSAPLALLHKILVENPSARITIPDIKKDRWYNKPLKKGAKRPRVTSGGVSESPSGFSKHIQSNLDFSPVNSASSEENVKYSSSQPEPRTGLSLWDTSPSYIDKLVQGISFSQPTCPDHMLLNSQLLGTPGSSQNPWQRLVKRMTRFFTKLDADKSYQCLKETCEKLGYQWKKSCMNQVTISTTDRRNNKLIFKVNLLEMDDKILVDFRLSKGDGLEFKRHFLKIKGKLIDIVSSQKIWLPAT

[3] = target: human Chk2 kinase (Homo sapiens, UniProt O96017); test: biochemical
Chain of human Chk2 kinase (O96017 whole entry): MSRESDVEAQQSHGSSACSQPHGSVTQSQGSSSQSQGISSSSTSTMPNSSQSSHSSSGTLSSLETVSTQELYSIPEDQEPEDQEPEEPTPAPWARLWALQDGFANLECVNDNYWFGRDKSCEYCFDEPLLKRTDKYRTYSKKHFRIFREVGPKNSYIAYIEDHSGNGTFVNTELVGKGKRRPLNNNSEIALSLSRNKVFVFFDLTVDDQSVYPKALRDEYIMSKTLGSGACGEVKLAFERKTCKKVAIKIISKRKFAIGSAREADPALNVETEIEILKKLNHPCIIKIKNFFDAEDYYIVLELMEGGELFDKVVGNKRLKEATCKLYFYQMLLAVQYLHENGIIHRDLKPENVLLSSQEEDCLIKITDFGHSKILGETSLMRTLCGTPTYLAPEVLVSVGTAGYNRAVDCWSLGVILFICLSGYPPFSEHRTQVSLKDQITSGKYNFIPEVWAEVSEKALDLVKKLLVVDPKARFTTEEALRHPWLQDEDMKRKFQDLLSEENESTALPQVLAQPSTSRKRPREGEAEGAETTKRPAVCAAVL

Row | SMILES | IC50 [1] | IC50 [2] | IC50 [3]
1 | C[C@H]1C[C@@H](N(C)C)CN1c1ccc(-n2cnc(Nc3cnc(C#N)cn3)c2)cc1 [Example 75, 5-((1-(4-((2S,4R)-4-(Dimethylamino)-2-methylpyrrolidin-1-yl)phenyl)-1H-imidazol-4-yl)amino)pyrazine-2-carbonitrile] | < 1 µM | – | –
2 | CN1CCN(c2ccc(-n3cnc(Nc4cnc(C#N)cn4)c3)cc2)CC1(C)C [Example 97, 5-((1-(4-(3,3,4-Trimethylpiperazin-1-yl)phenyl)-1H-imidazol-4-yl)amino)pyrazine-2-carbonitrile] | – | 0.0316 to 0.1 µM | 10 to 100 µM
3 | CN1CC2(CCN2c2ccc(-n3cnc(Nc4cnc(C#N)cn4)c3)cc2)C1 [Example 99, 5-((1-(4-(6-Methyl-1,6-diazaspiro[3.3]heptan-1-yl)phenyl)-1H-imidazol-4-yl)amino)pyrazine-2-carbonitrile] | – | 0.01 to 0.0316 µM | 10 to 100 µM
4 | CN1CCC12CCN(c1ccc(-n3cnc(Nc4cnc(C#N)cn4)c3)cc1)CC2 [Example 100, 5-((1-(4-(1-Methyl-1,7-diazaspiro[3.5]nonan-7-yl)phenyl)-1H-imidazol-4-yl)amino)pyrazine-2-carbonitrile] | – | 0.01 to 0.0316 µM | 10 to 100 µM
5 | CN1C[C@@H]2CN(c3ccc(-n4cnc(Nc5cnc(C#N)cn5)c4)cc3)C[C@@H]2C1 [Example 101, 5-((1-(4-((3aR,6aS)-5-Methylhexahydropyrrolo[3,4-c]pyrrol-2(1H)-yl)phenyl)-1H-imidazol-4-yl)amino)pyrazine-2-carbonitrile] | – | < 0.01 µM | 10 to 100 µM
6 | N#Cc1cnc(Nc2cn(-c3ccc(N4CC[C@@H](N5CCC5)C4)cn3)cn2)cn1 [Example 102, (R)-5-((1-(5-(3-(Azetidin-1-yl)pyrrolidin-1-yl)pyridin-2-yl)-1H-imidazol-4-yl)amino)pyrazine-2-carbonitrile] | – | 0.01 to 0.0316 µM | 1 to 10 µM
7 | COc1cc(N2CC[C@@H](N3CCC3)C2)ccc1-n1cnc(Nc2cnc(C#N)cn2)c1 [Example 103, (R)-5-((1-(4-(3-(Azetidin-1-yl)pyrrolidin-1-yl)-2-methoxyphenyl)-1H-imidazol-4-yl)amino)pyrazine-2-carbonitrile] | – | < 0.01 µM | 1 to 10 µM
8 | Cc1cc(-n2cnc(Nc3cnc(C#N)cn3)c2)ccc1N1CC[C@@H](N2CCC2)C1 [Example 104, (R)-5-((1-(4-(3-(Azetidin-1-yl)pyrrolidin-1-yl)-3-methylphenyl)-1H-imidazol-4-yl)amino)pyrazine-2-carbonitrile] | – | 0.01 to 0.0316 µM | 10 to 100 µM
9 | N#Cc1cnc(Nc2cn(-c3ccc(CN4CCOCC4)cc3)cn2)cn1 [Example 142, 5-((1-(4-(Morpholinomethyl)phenyl)-1H-imidazol-4-yl)amino)pyrazine-2-carbonitrile] | – | 0.1 to 0.316 µM | 10 to 100 µM
10 | CN1C[C@@H](F)[C@@H](OCc2ccc(-n3cnc(Nc4cnc(C#N)cn4)c3)cc2)C1 [Example 146, 5-((1-(4-((((3S,4R)-4-fluoro-1-Methylpyrrolidin-3-yl)oxy)methyl)phenyl)-1H-imidazol-4-yl)amino)pyrazine-2-carbonitrile] | – | 0.0316 to 0.1 µM | 10 to 100 µM
11 | N#Cc1cnc(Nc2cn(-c3cccc(N4C[C@@H](N)[C@@H](F)C4)c3)cn2)cn1 [Example 151, 5-((1-(3-((3R,4S)-3-Amino-4-fluoropyrrolidin-1-yl)phenyl)-1H-imidazol-4-yl)amino)pyrazine-2-carbonitrile] | – | 0.0316 to 0.1 µM | 10 to 100 µM
12 | N#Cc1cnc(Nc2cn(-c3ccc(N4CC(F)(CN)C4)cc3)cn2)cn1 [Example 159, 5-((1-(4-(3-(Aminomethyl)-3-fluoroazetidin-1-yl)phenyl)-1H-imidazol-4-yl)amino)pyrazine-2-carbonitrile] | – | 0.01 to 0.0316 µM | 1 to 10 µM
13 | N#Cc1cnc(Nc2cn(-c3ccc(N4CC5(CCN5)C4)cc3)cn2)cn1 [Example 160, 5-((1-(4-(1,6-Diazaspiro[3.3]heptan-6-yl)phenyl)-1H-imidazol-4-yl)amino)pyrazine-2-carbonitrile] | – | 0.01 to 0.0316 µM | 1 to 10 µM
14 | N#Cc1cnc(Nc2cn(-c3ccc(N4C[C@H]5CN[C@H]5C4)cc3)cn2)cn1 [Example 161, 5-((1-(4-((1R,5R)-3,6-Diazabicyclo[3.2.0]heptan-3-yl)phenyl)-1H-imidazol-4-yl)amino)pyrazine-2-carbonitrile] | – | 0.01 to 0.0316 µM | 1 to 10 µM
15 | CCN[C@@H]1CCN(c2ccc(-n3cnc(Nc4cnc(C#N)cn4)c3)cc2)C1 [Example 162, (R)-5-((1-(4-(3-(Ethylamino)pyrrolidin-1-yl)phenyl)-1H-imidazol-4-yl)amino)pyrazine-2-carbonitrile] | – | < 0.01 µM | 1 to 10 µM
16 | CN[C@H]1CN(c2ccc(-n3cnc(Nc4cnc(C#N)cn4)c3)c(OC)c2)C[C@H]1F [Example 164, 5-((1-(4-((3R,4S)-3-Fluoro-4-(methylamino)pyrrolidin-1-yl)-2-methoxyphenyl)-1H-imidazol-4-yl)amino)pyrazine-2-carbonitrile] | – | < 0.01 µM | 1 to 10 µM
17 | COc1cc(CN2CC[C@@H](F)C2)ccc1-n1cnc(Nc2cnc(C#N)cn2)c1 [Example 169] | – | 0.01 to 0.0316 µM | 10 to 100 µM
18 | CCNCc1ccc(-n2cnc(Nc3cnc(C#N)cn3)c2)c(OC)c1 [Example 170, 5-((1-(4-((Ethylamino)methyl)-2-methoxyphenyl)-1H-imidazol-4-yl)amino)pyrazine-2-carbonitrile] | – | 0.01 to 0.0316 µM | 10 to 100 µM
19 | COc1cc(CN2CCCC2)ccc1-n1cnc(Nc2cnc(C#N)cn2)c1 [Example 171, 5-((1-(2-Methoxy-4-(pyrrolidin-1-ylmethyl)phenyl)-1H-imidazol-4-yl)amino)pyrazine-2-carbonitrile] | – | 0.01 to 0.0316 µM | 10 to 100 µM
20 | COc1cc(CN2CCC(F)(F)CC2)ccc1-n1cnc(Nc2cnc(C#N)cn2)c1 [Example 172, 5-((1-(4-((4,4-Difluoropiperidin-1-yl)methyl)-2-methoxyphenyl)-1H-imidazol-4-yl)amino)pyrazine-2-carbonitrile] | – | 0.0316 to 0.1 µM | 10 to 100 µM
21 | COc1cc(CN2CCOCC2)ccc1-n1cnc(Nc2cnc(C#N)cn2)c1 [Example 173, 5-((1-(2-Methoxy-4-(morpholinomethyl)phenyl)-1H-imidazol-4-yl)amino)pyrazine-2-carbonitrile] | – | 0.0316 to 0.1 µM | 10 to 100 µM
22 | N#Cc1cnc(Nc2cn(-c3ccc(CN4CCC(F)CC4)cc3)cn2)cn1 [Example 174, 5-((1-(4-((4-Fluoropiperidin-1-yl)methyl)phenyl)-1H-imidazol-4-yl)amino)pyrazine-2-carbonitrile] | – | 0.0316 to 0.1 µM | 10 to 100 µM
23 | CN1CC2(CC(Oc3cccc(-n4cnc(Nc5cnc(C#N)cn5)c4)c3)C2)C1 [Example 175, 5-((1-(3-((2-Methyl-2-azaspiro[3.3]heptan-6-yl)oxy)phenyl)-1H-imidazol-4-yl)amino)pyrazine-2-carbonitrile] | – | 0.0316 to 0.1 µM | 10 to 100 µM
24 | CN1[C@@H]2COC[C@H]1CN(c1ccc(-n3cnc(Nc4cnc(C#N)cn4)c3)cc1)C2 [Example 177, 5-((1-(4-((1R,5S)-9-Methyl-3-oxa-7,9-diazabicyclo[3.3.1]nonan-7-yl)phenyl)-1H-imidazol-4-yl)amino)pyrazine-2-carbonitrile] | – | 0.1 to 0.316 µM | 10 to 100 µM
25 | CN1CC2(CC(Oc3ccc(-n4cnc(Nc5cnc(C#N)cn5)c4)cc3)C2)C1 [Example 178, 5-((1-(4-((2-Methyl-2-azaspiro[3.3]heptan-6-yl)oxy)phenyl)-1H-imidazol-4-yl)amino)pyrazine-2-carbonitrile] | – | 0.0316 to 0.1 µM | 10 to 100 µM
26 | CCN(CC)C1(c2ccc(-n3cnc(Nc4cnc(C#N)cn4)c3)cc2)CC1 [Example 179, 5-((1-(4-(1-(Diethylamino)cyclopropyl)phenyl)-1H-imidazol-4-yl)amino)pyrazine-2-carbonitrile] | – | 0.1 to 0.316 µM | > 100 µM
27 | COc1cc(OC2CC3(C2)CN(C)C3)ccc1-n1cnc(Nc2cnc(C#N)cn2)c1 [Example 180, 5-((1-(2-Methoxy-4-((2-methyl-2-azaspiro[3.3]heptan-6-yl)oxy)phenyl)-1H-imidazol-4-yl)amino)pyrazine-2-carbonitrile] | – | 0.0316 to 0.1 µM | 10 to 100 µM
28 | N#Cc1cnc(Nc2cn(-c3ccc(N4CCN(C5CC(F)(F)C5)CC4)cc3)cn2)cn1 [Example 181, 5-((1-(4-(4-(3,3-Difluorocyclobutyl)piperazin-1-yl)phenyl)-1H-imidazol-4-yl)amino)pyrazine-2-carbonitrile] | – | 0.0316 to 0.1 µM | > 100 µM
29 | N#Cc1cnc(Nc2cn(-c3ccc(N4CCN(C5COC5)CC4)cc3)cn2)cn1 [Example 182, 5-((1-(4-(4-(Oxetan-3-yl)piperazin-1-yl)phenyl)-1H-imidazol-4-yl)amino)pyrazine-2-carbonitrile] | – | 0.0316 to 0.1 µM | 10 to 100 µM
30 | CC(C)N1CCN(c2ccc(-n3cnc(Nc4cnc(C#N)cn4)c3)cc2)CC1 [Example 186, 5-((1-(4-(4-Isopropylpiperazin-1-yl)phenyl)-1H-imidazol-4-yl)amino)pyrazine-2-carbonitrile] | – | 0.1 to 0.316 µM | > 100 µM
